This note sets out measurements from PubChem BioAssay (NCI).

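Cultured in 96-well plates, cells were exposed to test compound for 48 hours across five concentrations. The concentration for full growth arrest is given as TGI.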

Holding throughout (assay): growth of human tumour cells (NCI), 48 h
Test [1] deals with RPMI-8226 leukemia.
In test [2] the test system is SW-620 colon.
The subject of test [3] is LOX IMVI melanoma.
Test [4] concerns A549 NSCLC.
Test [5] has as its system NCI-H226 lung.
The subject of test [6] is HCT-116 colon.
Test [7] relates to MCF7 breast.
In test [8] the test system is NCI/ADR-RES ovarian.
The subject of test [9] is HCC-2998 colon.
The subject of test [10] is SR leukemia.
For test [11], the system named is OVCAR-4 ovarian.
Test [12] concerns U251 CNS.
Test [13] relates to PC-3 prostate.
Test [14] deals with NCI-H460 lung.
The subject of test [15] is HOP-92 NSCLC.
The subject of test [16] is HOP-62 NSCLC.
Test [17] concerns KM12 colon.
In test [18] the test system is SN12C renal.
The subject of test [19] is SNB-75 CNS.
Test [20] relates to HL-60(TB) leukemia.

For `Cn1c2ccccc2c2c3c(c4c5ccccc5n(C5OC(CO)C(O)C(O)C5O)c4c21)C(=O)OC3=O` (stereo not drawn), the TGI in test [1], in [2], in test [3], in [4], in [5] and in test [6] was above 100 µM throughout. Further, the TGI in test [7], in [8], in [9], in [10], in test [11] and in test [12] was above 100 µM each time. Further, the TGI in test [13], in [14], in test [15], in test [16], in [17] and in test [18] was above 100 µM in each case. The TGI in test [19] was above 100 µM.

Consider `CC(=O)OCC1=CC2OC(=O)C3=COC(OC4OC(CO)C(O)C(O)C4O)C1C32` (stereo not drawn), for which the TGI in test [1], in test [2], in test [3], in test [4], in [5] and in [6] was above 100 µM each time. Besides, the TGI in test [7], in test [8], in [9], in test [10], in test [11] and in [12] was above 100 µM in each case. Besides, the TGI in test [13], in test [15], in test [16], in test [17], in test [18] and in test [20] was above 100 µM each time. The molecule further showed a TGI in test [19] above 100 µM.

With `CCOC(=O)[C@@]1(C(C)=O)CC(C)=C(C)C[S@]1=O`, the TGI in test [1], in [2], in [3], in [4], in test [5] and in test [6] was above 100 µM in each case. Besides, the TGI in [7], in test [8], in test [9], in test [10], in [11] and in test [12] was above 100 µM each time. The TGI in test [13], in test [14], in [15], in test [16], in [17] and in [18] was above 100 µM each time. In test [19], this molecule displayed a TGI above 100 µM.

For `Cc1ccc2nc(CN(CCO)CCO)cc(=O)n2c1`, the TGI in test [2], in [3], in test [4], in [5], in test [6] and in test [7] was above 100 µM in each case. In addition, the TGI in test [8], in test [9], in test [10], in test [11], in test [12] and in test [13] was above 100 µM throughout. Moreover, the TGI in test [14], in [15], in test [16], in test [17], in [18] and in test [20] was above 100 µM each time. This molecule also showed a TGI in test [19] above 100 µM.

`CC1=C[C@H]([C@H]2C=C(C)C(C(N)=O)=CN2Cc2c(Cl)cccc2Cl)N(Cc2c(Cl)cccc2Cl)C=C1C(N)=O`: the TGI in test [1], in test [2], in test [3], in [4], in [5] and in test [6] was above 75 µM in each case. The TGI in test [7], in test [8], in test [9], in test [10], in [11] and in test [12] was above 75 µM throughout. For the same molecule, the TGI in test [13] is above 75 µM; in [14], above 75 µM; in test [15], 65.8 µM; in [16] it was above 75 µM; in test [17], above 75 µM; in test [18], above 75 µM. In test [20], this molecule showed a TGI above 75 µM.

As for `O=S1(=O)c2ccccc2N2C(c3ccccc3)=NOC2(c2ccccc2)CC1c1ccc(Br)cc1` (stereo not drawn), the TGI in test [2], in test [3], in test [4], in test [5], in [6] and in test [7] was above 100 µM in each case. Moreover, the TGI in test [8], in test [9], in [10], in [11], in test [12] and in test [13] was above 100 µM each time. The TGI in test [14], in [15], in test [16], in test [17], in test [18] and in test [20] was above 100 µM each time. The molecule further displayed a TGI in [19] above 100 µM.

Take `CC(=O)OC12CC[N+]3(C)CCCCC3C1=Nc1ccccc12` (stereo not drawn): the TGI in test [1], in [2], in [3], in test [4], in test [5] and in test [6] was above 100 µM throughout. Moreover, the TGI in test [7], in test [8], in test [10], in test [11], in test [12] and in [13] was above 100 µM throughout. The TGI in test [14], in test [15], in test [16], in [17], in test [18] and in test [20] was above 100 µM in each case. In addition, the TGI in test [19] is above 100 µM.

As for `Cc1ccc(N=C2OP(=O)(Nc3ccc(C)cc3)Oc3ccccc32)cc1` (stereo not drawn), the TGI in [2], in [3], in [4], in test [5], in [6] and in test [7] was above 100 µM each time. For the same molecule, the TGI in test [8], in test [9], in test [10], in test [11], in [12] and in test [13] was above 100 µM throughout. Besides, the TGI in [14] is above 100 µM; in [15], 90.5 µM; in test [16] it was above 100 µM; in [17] it was above 100 µM; in [18], above 100 µM; in [20], above 100 µM. For the same molecule, the TGI in [19] is above 100 µM.

Regarding `N#CC1(C#N)[C@@H]2CCC=C(Sc3ccccc3)[C@@H]21`, the TGI is above 100 µM in test [1]; 26 µM in [2]; 36.8 µM in test [3]; 52.8 µM in test [4]; 36.3 µM in test [5]; 29.6 µM in test [6]. Besides, the TGI in [7] was 23.4 µM; in [8], 40.4 µM; in [9], 32 µM; in [10], above 100 µM; in [11], 29 µM; in test [12] it was 30.1 µM. Further, the TGI in test [13] turned out to be 27.5 µM; in test [14], 53.6 µM; in [15], 30.7 µM; in [17], 28.5 µM; in test [18] it was 32.3 µM; in test [20], 49.9 µM. In addition, in [19], the TGI worked out at 47.2 µM.

`OCC(O)COCn1cc(Cn2ncc3c(NCc4ccccc4)ncnc32)nn1` (stereo not drawn): the TGI in [1], in test [2], in test [3], in test [4], in test [5] and in test [6] was above 100 µM throughout. Further, the TGI in test [7], in test [8], in test [9], in [10], in [11] and in test [12] was above 100 µM each time. For the same molecule, the TGI in [13], in test [15], in test [16], in test [17], in [18] and in test [20] was above 100 µM throughout.

For `CC(=O)Nn1cnc(C(=N)C#N)c1N`, the TGI in test [1], in test [2], in [3], in test [4], in test [5] and in test [6] was above 100 µM throughout. Also, the TGI in test [7], in test [8], in test [9], in test [10], in [11] and in test [12] was above 100 µM each time. The TGI in test [13], in test [14], in [16], in test [17], in test [18] and in test [20] was above 100 µM each time. In [19], this molecule showed a TGI above 100 µM.

`O=C1/C(=C/C=C/c2ccccc2)N=C(c2ccccc2)N1c1ccc(S(=O)(=O)Nc2nccs2)cc1`: the TGI in test [1] was 68.2 µM; in test [2], above 100 µM; in test [3], 55.1 µM; in [4] it was above 100 µM; in test [5], 55.5 µM; in test [6], above 100 µM. The TGI in test [7] is above 100 µM; in test [8] it was above 100 µM; in test [10], above 100 µM; in test [11], above 100 µM; in test [12] it was 59.3 µM; in [13], above 100 µM. Further, the TGI in [14], in test [15], in test [16], in test [17], in test [18] and in test [20] was above 100 µM each time. Also, in test [19], the TGI was above 100 µM.

In the case of `COc1ccc(N/N=C/C2=CC(C)(C)C(C#N)(C#N)C(O)=C2C#N)cc1`, the TGI in test [1], in test [2], in test [3], in test [4], in test [5] and in test [6] was above 100 µM throughout. The TGI in test [7] was above 100 µM; in test [8], above 100 µM; in [10], 82.3 µM; in [11] it was above 100 µM; in test [12] it was above 100 µM; in test [13], above 100 µM. Also, the TGI in test [14] was above 100 µM; in [15] it was 75.6 µM; in [16], above 100 µM; in test [17] it was above 100 µM; in test [18], above 100 µM; in test [20], above 100 µM. In test [19], the TGI is above 100 µM.

Consider `Cc1nc(C)c(N2CCN(S(N)(=O)=O)CC2)c(=O)[nH]1`, for which the TGI in test [1], in [2], in test [3], in test [4], in test [5] and in test [6] was above 100 µM in each case. Moreover, the TGI in test [7], in test [8], in [9], in test [10], in [11] and in [12] was above 100 µM in each case. Besides, the TGI in [13], in [14], in test [15], in test [16], in test [17] and in test [18] was above 100 µM in each case. The molecule also came in with a TGI in [20] above 100 µM.

As to `COc1ccc2c(=O)c3c([nH]c2c1)OCC3=O`, the TGI in test [1], in test [2], in [3], in test [5], in test [6] and in test [7] was above 100 µM each time. Also, the TGI in test [8], in [9], in [10], in [11], in test [12] and in [13] was above 100 µM in each case. Also, the TGI in test [14], in test [15], in test [16], in [17], in test [20] and in [19] was above 100 µM each time.
